# Where two headings read alike, the source gives them in different places.
# Assays:
# [1] = system: MTAP-deleted cell line; test: viability assay for the MTAP-deleted cell line; assay type: cell-based
# [2] = system: HAP1 MTAP-deleted cell line; test: SDMA in-cell western assay, HAP1 MTAP-deleted; details: for Hap1 MTAP intact/deleted ratio: IC50 ratio between HAP1 MTAP-intact and HAP1 MTAP-deleted cell line
# [3] = system: HAP1 MTAP-intact cell line; test: SDMA in-cell western assay, HAP1 MTAP-intact
# [4] = Homo sapiens, HAP1, viability assay
# [5] = Homo sapiens, HAP1, read-out: Hap1 MTAP deleted IC50, SDMA in-cell western, HAP1 MTAP-deleted cell line
# [6] = Homo sapiens, HAP1, read-out: Hap1 MTAP deleted IC90, SDMA in-cell western, HAP1 MTAP-deleted cell line
# [7] = Homo sapiens, HAP1, read-out: Hap1 MTAP intact IC50, SDMA in-cell western, HAP1 MTAP-intact cell line
# [8] = Homo sapiens, HAP1, read-out: Hap1 MTAP deleted IC50, SDMA in-cell western assay, HAP1 MTAP-deleted cell line
# [9] = Homo sapiens, HAP1, read-out: Hap1 MTAP deleted IC90, SDMA in-cell western assay, HAP1 MTAP-deleted cell line
# [10] = Homo sapiens, HAP1, read-out: Hap1 MTAP intact IC50
# [11] = Homo sapiens, HAP1, read-out: Hap1 MTAP intact IC50, SDMA in-cell western assay, HAP1 MTAP-intact cell line
# [12] = viability assay, read-out: Hap1 MTAP deleted viability IC50
SMILES,"IC50 [1, 4]","IC50 [2, 5]","IC90 [2, 6]",Hap1 MTAP intact/deleted ratio ([2]; SDMA in-cell western),"IC50 [3, 7]","IC50 [2, 8]","IC90 [2, 9]",Hap1 MTAP intact/deleted ratio ([2]; SDMA in-cell western assay),"IC50 [3, 11]",further results
CC1=C(c2nc3cc([C@H]4CC[C@H](C)CN4C(=O)C(=O)Nc4cncc5cn[nH]c45)ccc3s2)CCN(C)C1 [Compound 165],< 0.1 µM,< 0.005 µM,< 0.075 µM,A (“A” indicates an IC50 ratio greater than or equal to 30 fold),> 0.05 µM,,,,,
"CN(C)c1cccc(C2CCCCN2C(=O)C(=O)Nc2cnc(N)c3cn[nH]c23)c1 (single isomer, unassigned) [Compound 256]",0.1 to 1 µM,,,,,0.005 to 0.05 µM,> 0.125 µM,A (“A” indicates an IC50 ratio greater than or equal to 30 fold),,"IC50 ([3]; read-out: Hap1 MTAP intact IC50, SDMA in-cell western assay, HAP1 MTAP-intact cell line): > 0.05 µM"
"C[C@H]1CC[C@H](c2ccc3sc(C4CCN(C)CC4)nc3c2)N(C(=O)C(=O)Nc2ccn3ccnc3c2)C1 [Compound 91, N-(imidazo[1,2-a]pyridin-7-yl)-2-((2R,5S)-5-methyl-2-(2-(1-methylpiperidin-4-yl)benzo[d]thiazol-5-yl)piperidin-1-yl)-2-oxoacetamide]",< 0.1 µM,< 0.005 µM,< 0.075 µM,B (“B” indicates an IC50 ratio greater than or equal to 15 fold but lower than 30 fold),0.005 to 0.05 µM,,,,,
"[2H]c1c([2H])c([2H])c([C@H]2CC[C@H](C)CN2C(=O)C(=O)Nc2cnc(N)c3cn[nH]c23)c([2H])c1[2H] (single isomer, unassigned) [Compound 268]",< 0.1 µM,,,,,< 0.005 µM,< 0.075 µM,,,"IC50 [3, 10]: 0.005 to 0.05 µM"
"C[C@H]1CC[C@H](c2ccc3sc(C4CCN(C)C(=O)C4)nc3c2)N(C(=O)C(=O)Nc2cncc3[nH]ncc23)C1 (single isomer, unassigned) [Compound 73]",0.1 to 1 µM,0.005 to 0.05 µM,> 0.125 µM,A (“A” indicates an IC50 ratio greater than or equal to 30 fold),> 0.05 µM,,,,,
"C[C@H]1CC[C@H](c2ccc3cn(CCN(C)C)nc3c2)N(C(=O)C(=O)Nc2cncc3cn[nH]c23)C1 [Compound 163, 2-oxo-N-(1H-pyrazolo[4,3-c]pyridin-7-yl)-2-[(2R,5S)-2-[2-[2-(dimethylamino)ethyl]indazol-6-yl]-5-methyl-1-piperidyl]acetamide]",< 0.1 µM,< 0.005 µM,< 0.075 µM,A (“A” indicates an IC50 ratio greater than or equal to 30 fold),> 0.05 µM,,,,,
"CCn1cc2ccc([C@H]3CC[C@H](C)CN3C(=O)C(=O)Nc3cnc(N)c4cn[nH]c34)cc2n1 (racemic) [Compound 253, N-(4-Amino-1H-pyrazolo[4,3-c]pyridin-7-yl)-2-oxo-2-[rac-(2R,5S)-2-(2-ethylindazol-6-yl)-5-methyl-1-piperidyl]acetamide]",< 0.1 µM,,,,,< 0.005 µM,< 0.075 µM,C (“C” indicates an IC50 ratio of less than 15 fold),< 0.005 µM,
"CC(CN1CCCC1)c1nc2cc([C@H]3CC[C@H](C)CN3C(=O)C(=O)Nc3cncc4cn[nH]c34)ccc2s1 (stereo partly drawn) [Compound 100, 2-((2R,5S)-5-methyl-2-(2-(1-(pyrrolidin-1-yl)propan-2-yl)benzo[d]thiazol-5-yl)piperidin-1-yl)-2-oxo-N-(1H-pyrazolo[4,3-c]pyridin-7-yl)acetamide]",< 0.1 µM,< 0.005 µM,< 0.075 µM,A (“A” indicates an IC50 ratio greater than or equal to 30 fold),> 0.05 µM,,,,,
"CO[C@H]1C[C@H](c2ccc(F)cc2)N(C(=O)C(=O)Nc2cnc(N)c3cn[nH]c23)C[C@H]1C (single isomer, unassigned) [Compound 38]",0.1 to 1 µM,> 0.05 µM,> 0.125 µM,C (“C” indicates an IC50 ratio of less than 15 fold),> 0.05 µM,,,,,
"CC1OCc2c(NC(=O)C(=O)N3C[C@@H](C)CC[C@@H]3c3ccc4scnc4c3)cnc(N)c21 (single isomer, unassigned) [Compound 287]",,,,,,,< 0.075 µM,B (“B” indicates an IC50 ratio greater than or equal to 15 fold but lower than 30 fold),,"IC50 [1, 12]: < 0.1 µM; IC50 ([2]; read-out: Hap1 MTAP deleted IC50, SDMA in-cell western assay, HAP1 MTAP-deleted cell line): < 0.005 µM; IC50 [3, 10]: > 0.05 µM"
"C[C@H]1CC[C@H](c2ccc3nn([C@@H]4CCN(C)C4)cc3c2)N(C(=O)C(=O)Nc2cncc3cn[nH]c23)C1 [Compound 36, 2-oxo-N-(1H-pyrazolo[4,3-c]pyridin-7-yl)-2-[(2R,5S)-5-methyl-2-[2-[(3R)-1-methylpyrrolidin-3-yl]indazol-5-yl]-1-piperidyl]acetamide]",0.1 to 1 µM,< 0.005 µM,0.075 to 0.125 µM,A (“A” indicates an IC50 ratio greater than or equal to 30 fold),> 0.05 µM,,,,,
"Nc1ncc(NC(=O)C(=O)N2CCCCC2c2cccc(N3CCCC3)c2)c2[nH]ncc12 (single isomer, unassigned) [Compound 213]",0.1 to 1 µM,,,,,0.005 to 0.05 µM,> 0.125 µM,A (“A” indicates an IC50 ratio greater than or equal to 30 fold),> 0.05 µM,
"Cc1ccc2ccc([C@H]3CC[C@H](C)CN3C(=O)C(=O)Nc3cnc(N)c4cn[nH]c34)cc2n1 (racemic) [Compound 215, N-(4-Amino-1H-pyrazolo[4,3-c]pyridin-7-yl)-2-oxo-2-[rac-(2R,5S)-5-methyl-2-(2-methyl-7-quinolyl)-1-piperidyl]acetamide]",< 0.1 µM,,,,,< 0.005 µM,< 0.075 µM,C (“C” indicates an IC50 ratio of less than 15 fold),0.005 to 0.05 µM,
"C[C@H]1CC[C@H](c2ccc3sc([C@H]4CCN(C)C[C@H]4C)nc3c2)N(C(=O)C(=O)Nc2cncc3cn[nH]c23)C1 (relative stereo) [Compound 106, 2-oxo-N-(1H-pyrazolo[4,3-c]pyridin-7-yl)-2-[(2R,5S)-5-methyl-2-[2-[rel-(3S,4S)-1,3-dimethyl-4-piperidyl]-1,3-benzothiazol-5-yl]-1-piperidyl]acetamide]",,,,C (“C” indicates an IC50 ratio of less than 15 fold),,,,,,"IC50 [1, 12]: < 0.1 µM; IC50 ([2]; read-out: Hap1 MTAP deleted IC50, SDMA in-cell western, HAP1 MTAP-deleted cell line): < 0.005 µM; IC90 ([2]; read-out: Hap1 MTAP deleted IC90, SDMA in-cell western, HAP1 MTAP-deleted cell line): < 0.075 µM; IC50 ([3]; read-out: Hap1 MTAP intact IC50, SDMA in-cell western, HAP1 MTAP-intact cell line): 0.005 to 0.05 µM"
"C[C@H]1CC[C@H](c2ccc(CCN(C)C)cc2)N(C(=O)C(=O)Nc2cnc(N)c3c2cnn3C)C1 [Compound 202, N-(7-Amino-1-methyl-pyrazolo[3,4-c]pyridin-4-yl)-2-oxo-2-[(2R,5S)-2-[4-[2-(dimethylamino)ethyl]phenyl]-5-methyl-1-piperidyl]acetamide]",< 0.1 µM,,,,,< 0.005 µM,< 0.075 µM,C (“C” indicates an IC50 ratio of less than 15 fold),0.005 to 0.05 µM,
"C[C@H]1CC[C@H](c2ccc3sc(C45CCC(CC4)N(C)C5)nc3c2)N(C(=O)C(=O)Nc2ccn3ccnc3c2)C1 [Compound 110, N-(imidazo[1,2-a]pyridin-7-yl)-2-((2R,5S)-5-methyl-2-(2-(2-methyl-2-azabicyclo[2.2.2]octan-4-yl)benzo[d]thiazol-5-yl)piperidin-1-yl)-2-oxoacetamide]",< 0.1 µM,< 0.005 µM,< 0.075 µM,A (“A” indicates an IC50 ratio greater than or equal to 30 fold),0.005 to 0.05 µM,,,,,
"C[C@H]1CC[C@H](c2ccc3sc(C4CCN(C)CC4)nc3c2)N(C(=O)C(=O)Nc2cnc(N)c3cn[nH]c23)C1 [Compound 105, N-(4-amino-1H-pyrazolo[4,3-c]pyridin-7-yl)-2-oxo-2-[(2R,5S)-5-methyl-2-[2-(1-methyl-4-piperidyl)-1,3-benzothiazol-5-yl]-1-piperidyl]acetamide]",< 0.1 µM,< 0.005 µM,< 0.075 µM,,,,,,,"IC50 [3, 10]: < 0.005 µM"
"CCn1nccc1[C@H]1CC[C@@H](C)CN1C(=O)C(=O)Nc1cnc(N)c2cn[nH]c12 (stereo in doubt) [Compound 285, N-(4-Amino-1H-pyrazolo[4,3-c]pyridin-7-yl)-2-oxo-2-[rac-(2R,5R)-2-(2-ethylpyrazol-3-yl)-5-methyl-1-piperidyl]acetamide]",0.1 to 1 µM,,,,,0.005 to 0.05 µM,> 0.125 µM,A (“A” indicates an IC50 ratio greater than or equal to 30 fold),> 0.05 µM,
"C[C@H]1CC[C@H](c2cccc(F)c2)N(C(=O)C(=O)Nc2cnc(N)c3cn[nH]c23)C1 (racemic) [Compound 198, N-(4-Amino-1H-pyrazolo[4,3-c]pyridin-7-yl)-2-oxo-2-[rac-(2R,5S)-2-(3-fluorophenyl)-5-methyl-1-piperidyl]acetamide]",< 0.1 µM,,,,,< 0.005 µM,< 0.075 µM,B (“B” indicates an IC50 ratio greater than or equal to 15 fold but lower than 30 fold),0.005 to 0.05 µM,
